Test results as given in patent US11931424B2, “Combination MCL-1 inhibitors with anti-body drug conjugates” (Gilead Sciences, Inc., priority 2021, dated 2024).

System: panel of breast cancer cell lines
Assay: Compound A with targeted agents and chemotherapies, 72-hour in vitro proliferation assays
Format: cell-based
Conditions: compound A × partner, 72-hour proliferation

Cn1ncnc1[C@H]1c2n[nH]c(=O)c3cc(F)cc(c23)N[C@@H]1c1ccc(F)cc1 [BMN 673]
Best CI (AU565 cell line): 0.72
Bliss Volume (AU565 cell line): 5.62
HSA volume (AU565 cell line): 2.94
Synergy Score (AU565 cell line): 8.12
Best CI (BT-20 cell line): 0.67
Bliss Volume (BT-20 cell line): 6.61
HSA volume (BT-20 cell line): 7.19
Loewe Volume (BT-20 cell line): 7.05
Synergy Score (BT-20 cell line): 13.00
Best CI (CAL-51 cell line): 0.26
Bliss Volume (CAL-51 cell line): 6.45
HSA volume (CAL-51 cell line): 8.03
Loewe Volume (CAL-51 cell line): 8.01
Synergy Score (CAL-51 cell line): 6.14
Best CI (CAL-85-1 cell line): 0.10
Bliss Volume (CAL-85-1 cell line): 9.61
HSA volume (CAL-85-1 cell line): 13.84
Loewe Volume (CAL-85-1 cell line): 13.04
Synergy Score (CAL-85-1 cell line): 13.48
Best CI (CAL-120 cell line): 2.73
Bliss Volume (CAL-120 cell line): −3.70
HSA volume (CAL-120 cell line): −7.12
Loewe Volume (CAL-120 cell line): −9.94
Synergy Score (CAL-120 cell line): 0.01
Best CI (CAL-148 cell line): 0.03
Bliss Volume (CAL-148 cell line): 32.27
HSA volume (CAL-148 cell line): 30.51
Loewe Volume (CAL-148 cell line): 33.70
Synergy Score (CAL-148 cell line): 51.37
Best CI (CAMA-1 cell line): 0.44
Bliss Volume (CAMA-1 cell line): 14.84
HSA volume (CAMA-1 cell line): 11.15
Loewe Volume (CAMA-1 cell line): 11.46
Best CI (DU-4475 cell line): 0.90
Bliss Volume (DU-4475 cell line): 14.54
HSA volume (DU-4475 cell line): 11.67
Loewe Volume (DU-4475 cell line): 11.80
Synergy Score (DU-4475 cell line): 12.59
Best CI (EVSA-T cell line): 0.76
Bliss Volume (EVSA-T cell line): 12.51
HSA volume (EVSA-T cell line): 5.77
Loewe Volume (EVSA-T cell line): 5.78
Synergy Score (EVSA-T cell line): 7.17
Best CI (HCC38): 0.09
Bliss Volume (HCC38): 12.68
Loewe Volume (HCC38): 13.43
Synergy Score (HCC38): 20.73
Best CI (HCC70): 0.39
Bliss Volume (HCC70): 15.24
HSA volume (HCC70): 15.02
Loewe Volume (HCC70): 15.13
Best CI (HCC1143 cell line): 0.53
Bliss Volume (HCC1143 cell line): 0.82
HSA volume (HCC1143 cell line): 2.15
Loewe Volume (HCC1143 cell line): 1.38
Synergy Score (HCC1143 cell line): 4.91
Best CI (HCC1569): 0.55
Bliss Volume (HCC1569): 9.55
HSA volume (HCC1569): 11.82
Loewe Volume (HCC1569): 11.51
Synergy Score (HCC1569): 10.50
Best CI (HCC1806): 0.15
Bliss Volume (HCC1806): 15.34
HSA volume (HCC1806): 21.19
Loewe Volume (HCC1806): 21.61
Synergy Score (HCC1806): 26.09
Best CI (HCC1937): 0.51
Bliss Volume (HCC1937): 5.18
HSA volume (HCC1937): 0.65
Loewe Volume (HCC1937): 4.96
Synergy Score (HCC1937): 3.27
Best CI (HCC1954): 0.56
Bliss Volume (HCC1954): 7.66
HSA volume (HCC1954): 7.39
Loewe Volume (HCC1954): 8.33
Synergy Score (HCC1954): 9.80
Best CI (HCC2218): 0.90
Bliss Volume (HCC2218): 1.41
HSA volume (HCC2218): 0.71
Loewe Volume (HCC2218): 0.15
Synergy Score (HCC2218): 5.35
Best CI (HDQ-P1): 0.91
Bliss Volume (HDQ-P1): 0.31
HSA volume (HDQ-P1): −0.95
Loewe Volume (HDQ-P1): −0.15
Synergy Score (HDQ-P1): 1.09
Best CI (HMC-1-8): 0.22
Bliss Volume (HMC-1-8): 22.38
HSA volume (HMC-1-8): 11.38
Loewe Volume (HMC-1-8): 11.09
Synergy Score (HMC-1-8): 19.54
Best CI (JIMT-1): 0.13
Bliss Volume (JIMT-1): −0.56
HSA volume (JIMT-1): −1.70
Loewe Volume (JIMT-1): −1.62
Synergy Score (JIMT-1): 1.28
Best CI (KPL-1): 0.53
Bliss Volume (KPL-1): −2.58
HSA volume (KPL-1): 0.29
Synergy Score (KPL-1): 1.84
